# Assay results taken from BindingDB's records for doi:10.7270/Q2BV7F1T (Pcmd, 2008).
# Target: T1, DNA repair protein RAD51 homolog 1 (Homo sapiens, UniProt Q06609)
# T1 sequence (Q06609 whole entry): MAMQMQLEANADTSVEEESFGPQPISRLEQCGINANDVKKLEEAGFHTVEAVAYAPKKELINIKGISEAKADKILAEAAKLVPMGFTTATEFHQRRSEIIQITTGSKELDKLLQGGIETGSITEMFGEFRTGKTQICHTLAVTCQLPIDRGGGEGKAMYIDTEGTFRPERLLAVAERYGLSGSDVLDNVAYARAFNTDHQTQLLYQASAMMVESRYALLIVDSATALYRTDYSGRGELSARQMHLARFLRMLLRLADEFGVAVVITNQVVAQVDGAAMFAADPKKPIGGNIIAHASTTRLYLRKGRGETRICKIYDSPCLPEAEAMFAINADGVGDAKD
# Assay: RAD51 recombination inhibitor potency, dose response, biochemical, homologous recombination, fluorescence (AID 1435)
# [1] = inactive by the depositor's call
SMILES,IC50 [µM],IC50 [1] [µM]
OC(COc1ccc2c(c1)CCC2)Cn1cnc2ccccc21 (stereo not drawn) [SMR000082144],> 85,
"CC1CCCC(C)N1S(=O)(=O)c1ccc(NC(=O)CCn2cnc3ccccc3c2=O)cc1 (stereo not drawn) [N-[4-(2,6-dimethylpiperidin-1-yl)sulfonylphenyl]-3-(4-oxoquinazolin-3-yl)propanamide]",> 85,
CCOc1ccccc1C(=O)Nc1nccs1,> 85,
CCOc1ccc(OCC)c(NC(=O)C2CCN(c3ncccn3)CC2)c1,,42.5
"O=C(CSc1nnc(Cc2ccccc2)o1)N1CCc2ccccc21 [1-{[(5-benzyl-1,3,4-oxadiazol-2-yl)thio]acetyl}indoline]",> 85,
O=C1OCC2OC(O)C(O)C(O)C2OC(=O)c2cc(O)c(O)c(O)c2-c2c(O)c(O)c3oc(=O)c4c(c(O)c(O)c5oc(=O)c2c3c54)-c2c1cc(O)c(O)c2O (stereo not drawn) [SMR000445568],0.176,
COC(=O)CCC(=O)OC1(C)C(=O)C2=CN(C3CC3)C(c3ccc(OC)cc3)=CC2=C(Br)C1=O (stereo not drawn) [MLS000438679],,42.5
CC1(C)CC(=O)C=C(NNC(=O)c2ccccc2O)C1 [SMR000185773],,42.5
Cc1ccc(C(=O)COc2cccc(NC(=O)c3ccco3)c2)cc1 [N-{3-[2-(4-methylphenyl)-2-oxoethoxy]phenyl}-2-furamide],> 85,
CCOC(=O)C(NC(C)=O)(Nc1ccc(S(=O)(=O)Nc2cc(C)on2)cc1)C(F)(F)F (stereo not drawn),> 85,
"CCOC(=O)C1(C(=O)OCC)CC1c1ccccc1 (stereo not drawn) [2-phenylcyclopropane-1,1-dicarboxylic acid diethyl ester]",> 85,
O=S(=O)(Nc1ccc(O)c(CN2CCCCC2)c1)c1ccccc1 [N-[4-oxidanyl-3-(piperidin-1-ylmethyl)phenyl]benzenesulfonamide],> 85,
O=C(CN1C(=O)C2CC=CCC2C1=O)Nc1nccs1 (stereo not drawn) [MLS000054855],,42.5
CCC1(C)Nc2ccccc2C(=O)N1O (stereo not drawn) [SMR000024795],> 85,
"Cc1cc2nc3c(nc2cc1C)C1(C(=O)O)CCC3(C)C1(C)C (stereo not drawn) [6,7,12,15,15-pentamethyl-3,10-diazatetracyclo[10.2.1.0~2,11~.0~4,9~]pentadeca-2(11),3,5,7,9-pentaene-1-carboxylic acid]",37.1,
CCCCCOCC1CC(CC(C)N=Nc2nc(-c3ccccc3)cs2)C(=O)O1 (stereo not drawn) [5-(amoxymethyl)-3-[2-[(4-phenylthiazol-2-yl)hydrazono]propyl]tetrahydrofuran-2-one],> 85,
"COC(=O)c1cc2n(n1)CCN(Cc1ccc(F)cc1)C2=O [5-(4-fluorobenzyl)-4-keto-6,7-dihydropyrazolo[1,5-a]pyrazine-2-carboxylic acid methyl ester]",,42.5
CN1CCN(C2=C(Cl)C(=O)N(Cc3ccccc3)C2=O)CC1 [MLS000030834],> 85,
CCOC(=O)C1CCCN(S(=O)(=O)c2ccc(OC)cc2)C1 (stereo not drawn) [1-(4-methoxyphenyl)sulfonyl-3-piperidinecarboxylic acid ethyl ester],> 85,
CCCCC(Nc1ncnc2ccccc12)C(=O)O (stereo not drawn) [2-(4-quinazolinylamino)hexanoic acid],,42.5
CC1=CC(C)C(COC(N)=O)(COC(N)=O)C(C)C1 (stereo not drawn),> 85,
"CC(C)CC(=O)/N=C(\N)Nc1nc2ccccc2s1 [N-[(E)-N''''-(1,3-benzothiazol-2-yl)carbamimidoyl]-3-methylbutanamide]",> 85,
CCC(=O)Nc1nc(=S)ss1,> 85,
"O=C(CSCc1ccc(F)cc1)Nc1nc2c(s1)CCCC2 [2-[(4-fluorobenzyl)thio]-N-(4,5,6,7-tetrahydro-1,3-benzothiazol-2-yl)acetamide]",> 85,

SMILES,IC50 [µM],IC50 [1] [µM]
"CCOC(=O)Cn1c(=O)c2c(nc(N3CCCCC3)n2Cc2ccccc2)n(C)c1=O [2-(7-benzyl-2,6-diketo-3-methyl-8-piperidino-purin-1-yl)acetic acid ethyl ester]",> 85,1.4
O=C(CN1C(=O)c2ccccc2S1(=O)=O)Nc1ccc(S(=O)(=O)N2CCCCC2)cc1 [SMR000074755],,42.5
"COc1cc(C)c2c(c1C=O)Oc1c(c(C)c(O)c3c1C(O)OC3=O)OC2=O (stereo not drawn) [1,4-Dihydroxy-10-methoxy-5,8-dimethyl-3,7-dioxo-1,3-dihydro-7H-benzo[e]furo[3',4':3,4]benzo[b][1,4]dioxepine-11-carbaldehyde]",8.74,
CCOC(=O)N1CCN(C(=O)CSCC(=O)N=c2sc3ccccc3n2C)CC1,,42.5
"COCCn1c(=NC(=O)CSC(C)=O)sc2cc(F)ccc21 [S-[2-[[6-fluoranyl-3-(2-methoxyethyl)-1,3-benzothiazol-2-ylidene]amino]-2-oxidanylidene-ethyl] ethanethioate]",> 85,
COC(=O)COc1ccc(S(=O)(=O)NCCC2=CCCCC2)cc1C [methyl [4-({[2-(1-cyclohexen-1-yl)ethyl]amino}sulfonyl)-2-methylphenoxy]acetate],> 85,
CCOC(=O)CN1C(=O)N[C@@H](CCc2ccccc2)[C@@H](C(=O)OC)[C@H]1C [CMLD004122],,42.5
"CCCOc1ccccc1N=C(NC(=O)COc1ccc(OC)cc1)Nc1nc(C)cc(C)n1 [N-{[(4,6-dimethyl-2-pyrimidinyl)amino][(2-propoxyphenyl)amino]methylene}-2-(4-methoxyphenoxy)acetamide]",> 85,
Cn1cc(NC(=O)c2cc(NC(=O)c3cc(NC=O)cn3C)cn2C)cc1C(=O)NCCC(=N)N,6.37,
Cc1ccccc1NC(=O)NCC1CCCO1 (stereo not drawn) [1-(2-methylphenyl)-3-(oxolan-2-ylmethyl)urea],> 85,
O=c1[nH]c(N2CCN(Cc3ccc4c(c3)OCO4)CC2)nc2c1CCC2 [MLS000100276],> 85,
"CCOC(=O)c1c(NS(C)(=O)=O)sc2c1CCC(C)C2 (stereo not drawn) [ethyl 2-(methanesulfonamido)-6-methyl-4,5,6,7-tetrahydro-1-benzothiophene-3-carboxylate]",> 85,
"O=C(c1ccc2ccccc2n1)N1CCN(c2ccccc2O)CC1 [Glucosamine derivative, 2]",> 85,
CC(=O)Nn1c(-c2ccccc2)cc2ccccc21 [MLS000082684],,42.5
Cc1cc(C)n(-c2nc3c(c(=O)[nH]c(=O)n3C)n2Cc2ccc(F)cc2)n1 [SMR000046638],> 85,
COc1cccc2c1C(=O)c1c(O)c3c(c(O)c1C2=O)C[C@@](O)(C(=O)CO)C[C@@H]3O[C@H]1C[C@H](N)[C@H](O)[C@H](C)O1 [MLS000028393],> 85,
Cc1cc(C(=O)Nc2cccnc2)cs1 [5-methyl-N-pyridin-3-yl-thiophene-3-carboxamide],> 85,
CN1CCN(C(=O)c2ccc(S(=O)(=O)c3ccc(Br)cc3)cc2)CC1 [SMR000041005],> 85,
"O=P(OCC(F)(F)C(F)F)(N1CCOCC1)N1CCOCC1 [4-[morpholin-4-yl(2,2,3,3-tetrafluoropropoxy)phosphoryl]morpholine]",,42.5
COC(=O)C(C=Nc1cccc(Cl)c1C)c1ncc(C(F)(F)F)cc1Cl (stereo not drawn) [methyl (Z)-3-(3-chloro-2-methylanilino)-2-[3-chloro-5-(trifluoromethyl)-2-pyridinyl]-2-propenoate],> 85,
CCOC(=O)C1CCN(CC(=O)Nc2c(C(=O)OC)n(C)c3cccc(C)c23)CC1 [SMR000046840],> 85,
COc1ccc(S(=O)(=O)NC(C)C(=O)Nc2ccccc2C(F)(F)F)cc1 (stereo not drawn),> 85,
Cc1onc(-c2c(Cl)cccc2Cl)c1C(=O)Nn1cnnc1 [SMR000009301],> 85,
